Laboratory results published in patent US9321773B2, “Compounds” (Respivert Ltd, priority 2009, dated 2016).
Read-outs that look alike come from different tables or passages of the source.

Assays:
recombinant PI3 kinase α = recombinant PI3 kinase α (Homo sapiens (Human), UniProt P42336); test: Enzyme Inhibition Assay (HTRF PI3K enzyme assay, TR-FRET); type: biochemical; settings: activity range; read-out: PI3 Kinase Inhibition IC50 values at stated Isozyme α
Summary of the method: (§1)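 TR-FRET readout after 15-18 hr at RT with biotinylated PIP3, GST-tagged GRP1 PH domain and europium/APC fluorophores; product PIP3 displaces the tracer and lowers the signal. Beforehand, compound and PIP2 were reacted for 2 hr at RT with human recombinant PI3Kα, δ or γ.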

recombinant PI3 kinase γ = recombinant PI3 kinase γ (Homo sapiens (Human), UniProt P48736); test: as above; type: biochemical; settings: activity range; read-out: PI3 Kinase Inhibition IC50 values at stated Isozyme γ
Summary of the method: as §1

recombinant PI3 kinase δ = recombinant PI3 kinase δ (Homo sapiens (Human), UniProt O00329); test: as above; type: biochemical; settings: activity range; read-out: PI3 Kinase Inhibition IC50 values at stated Isozyme δ
Summary of the method: as §1

[1] = tested on: H2O2 induced pAkt in D-U937 cells; test: PI3Kδ Cell Based Assay (H2O2 induced pAkt); settings: Homo sapiens
Summary of the method: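 Read-out is the pAkt/total Akt signal ratio, measured with anti-pAkt and anti-pan-Akt antibodies after H2O2 stimulation. Cells were U937 monocytes given PMA (100 ng/mL) for 48 to 72 hr. IC50 values fitted from compound serial dilutions.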

[2] = tested on: PMA-differentiated U937 cells; test: MTT Assay (cell viability); type: cell-based, Human; settings: percentage loss of cell viability; for Cell Viability MTT Assay in D-U937 cells at 4 hr: 4 hr in 5% FCS; for Cell Viability MTT Assay in D-U937 cells at 24 hr: 24 hr in 10% FCS
Summary of the method: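 Differentiated U937 cells treated with compound for 4 hr (5% FCS) or 24 hr (10% FCS), then given MTT for 1 hr; formazan dissolved in DMSO and absorbance read at 550 nm. Viability loss expressed as % versus 0.5% DMSO vehicle.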

[3] = dU937, activity range, D-U937 cells, read-out: Cellular Activity IC50 values (H2O2 induced pAkt D-U937 Cells)

recombinant PI3 kinase γ, sequence (P48736 whole entry): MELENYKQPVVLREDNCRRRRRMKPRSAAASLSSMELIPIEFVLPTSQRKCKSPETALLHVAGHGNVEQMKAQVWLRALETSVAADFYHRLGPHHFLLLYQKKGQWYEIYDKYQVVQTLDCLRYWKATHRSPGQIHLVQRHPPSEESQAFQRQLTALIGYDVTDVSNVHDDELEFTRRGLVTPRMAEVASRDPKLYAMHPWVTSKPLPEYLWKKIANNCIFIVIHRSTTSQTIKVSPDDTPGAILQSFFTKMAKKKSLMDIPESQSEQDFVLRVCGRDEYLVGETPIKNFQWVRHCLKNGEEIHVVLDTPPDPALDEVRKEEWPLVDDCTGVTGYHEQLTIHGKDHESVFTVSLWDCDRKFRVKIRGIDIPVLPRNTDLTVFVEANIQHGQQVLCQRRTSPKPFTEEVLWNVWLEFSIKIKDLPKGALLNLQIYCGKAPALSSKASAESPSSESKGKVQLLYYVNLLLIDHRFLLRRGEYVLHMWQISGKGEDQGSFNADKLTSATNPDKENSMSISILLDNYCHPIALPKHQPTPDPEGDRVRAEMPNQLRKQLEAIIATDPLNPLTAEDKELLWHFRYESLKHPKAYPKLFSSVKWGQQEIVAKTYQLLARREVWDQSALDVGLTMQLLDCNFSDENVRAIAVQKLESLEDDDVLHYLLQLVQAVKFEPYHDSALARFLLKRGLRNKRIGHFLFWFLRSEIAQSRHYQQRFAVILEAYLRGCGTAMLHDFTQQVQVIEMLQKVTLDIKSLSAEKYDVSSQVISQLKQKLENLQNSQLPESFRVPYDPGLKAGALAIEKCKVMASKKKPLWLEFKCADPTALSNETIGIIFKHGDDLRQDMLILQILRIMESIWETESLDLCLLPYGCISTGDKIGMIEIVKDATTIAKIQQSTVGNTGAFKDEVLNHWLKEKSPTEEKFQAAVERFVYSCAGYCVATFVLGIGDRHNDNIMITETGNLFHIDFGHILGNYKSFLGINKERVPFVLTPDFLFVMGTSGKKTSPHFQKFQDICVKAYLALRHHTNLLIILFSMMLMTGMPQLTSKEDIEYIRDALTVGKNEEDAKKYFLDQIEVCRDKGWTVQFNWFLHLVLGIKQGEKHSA
recombinant PI3 kinase α, sequence (P42336 whole entry, the tested form may be a part): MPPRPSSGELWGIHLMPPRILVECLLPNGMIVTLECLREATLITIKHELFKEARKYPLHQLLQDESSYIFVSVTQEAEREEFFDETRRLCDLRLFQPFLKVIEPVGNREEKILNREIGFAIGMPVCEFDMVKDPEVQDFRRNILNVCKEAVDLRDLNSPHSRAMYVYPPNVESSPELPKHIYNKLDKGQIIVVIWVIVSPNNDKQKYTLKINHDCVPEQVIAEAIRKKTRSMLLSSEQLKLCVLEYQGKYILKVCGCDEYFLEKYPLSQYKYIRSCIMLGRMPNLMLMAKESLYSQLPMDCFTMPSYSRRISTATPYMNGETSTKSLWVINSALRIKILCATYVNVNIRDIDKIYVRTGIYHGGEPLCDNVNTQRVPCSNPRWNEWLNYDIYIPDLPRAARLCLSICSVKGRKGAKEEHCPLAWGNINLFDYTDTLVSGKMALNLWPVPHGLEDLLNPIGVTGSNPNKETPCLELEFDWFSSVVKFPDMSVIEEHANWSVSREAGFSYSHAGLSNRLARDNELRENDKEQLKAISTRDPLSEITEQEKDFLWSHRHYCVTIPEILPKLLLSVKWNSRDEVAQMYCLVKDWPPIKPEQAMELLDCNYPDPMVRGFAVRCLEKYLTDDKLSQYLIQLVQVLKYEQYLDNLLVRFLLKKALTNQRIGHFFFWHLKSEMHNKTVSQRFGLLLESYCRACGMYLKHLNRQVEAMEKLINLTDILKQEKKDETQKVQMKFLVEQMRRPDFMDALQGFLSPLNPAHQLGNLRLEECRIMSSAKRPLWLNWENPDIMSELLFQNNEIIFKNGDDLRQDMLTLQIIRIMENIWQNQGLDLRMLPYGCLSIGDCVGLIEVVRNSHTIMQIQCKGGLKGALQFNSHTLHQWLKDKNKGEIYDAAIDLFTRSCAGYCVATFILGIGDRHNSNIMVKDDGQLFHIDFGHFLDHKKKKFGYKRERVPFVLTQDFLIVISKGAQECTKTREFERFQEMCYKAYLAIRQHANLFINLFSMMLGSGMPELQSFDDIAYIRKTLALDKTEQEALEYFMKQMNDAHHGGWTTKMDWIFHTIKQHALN
recombinant PI3 kinase α, sequence (P27986 whole entry partner, the tested form may be a part): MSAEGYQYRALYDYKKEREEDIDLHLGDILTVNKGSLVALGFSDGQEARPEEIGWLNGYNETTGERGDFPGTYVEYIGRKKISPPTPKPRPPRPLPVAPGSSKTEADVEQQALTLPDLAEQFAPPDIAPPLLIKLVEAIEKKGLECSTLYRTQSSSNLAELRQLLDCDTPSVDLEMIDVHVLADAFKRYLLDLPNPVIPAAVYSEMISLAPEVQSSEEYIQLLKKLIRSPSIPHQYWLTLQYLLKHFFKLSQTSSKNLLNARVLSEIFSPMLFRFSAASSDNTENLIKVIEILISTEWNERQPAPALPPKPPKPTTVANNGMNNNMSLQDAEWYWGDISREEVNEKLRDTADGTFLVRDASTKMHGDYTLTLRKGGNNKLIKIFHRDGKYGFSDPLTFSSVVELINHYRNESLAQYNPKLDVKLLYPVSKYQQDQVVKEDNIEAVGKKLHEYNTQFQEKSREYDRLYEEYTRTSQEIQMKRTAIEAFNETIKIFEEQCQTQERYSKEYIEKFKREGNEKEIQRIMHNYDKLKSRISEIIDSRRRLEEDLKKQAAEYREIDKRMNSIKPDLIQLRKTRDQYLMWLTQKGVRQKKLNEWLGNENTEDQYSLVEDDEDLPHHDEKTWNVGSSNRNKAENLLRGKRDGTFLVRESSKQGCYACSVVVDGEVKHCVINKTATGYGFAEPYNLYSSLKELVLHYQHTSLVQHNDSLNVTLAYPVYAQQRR
recombinant PI3 kinase δ, sequence (O00329 whole entry): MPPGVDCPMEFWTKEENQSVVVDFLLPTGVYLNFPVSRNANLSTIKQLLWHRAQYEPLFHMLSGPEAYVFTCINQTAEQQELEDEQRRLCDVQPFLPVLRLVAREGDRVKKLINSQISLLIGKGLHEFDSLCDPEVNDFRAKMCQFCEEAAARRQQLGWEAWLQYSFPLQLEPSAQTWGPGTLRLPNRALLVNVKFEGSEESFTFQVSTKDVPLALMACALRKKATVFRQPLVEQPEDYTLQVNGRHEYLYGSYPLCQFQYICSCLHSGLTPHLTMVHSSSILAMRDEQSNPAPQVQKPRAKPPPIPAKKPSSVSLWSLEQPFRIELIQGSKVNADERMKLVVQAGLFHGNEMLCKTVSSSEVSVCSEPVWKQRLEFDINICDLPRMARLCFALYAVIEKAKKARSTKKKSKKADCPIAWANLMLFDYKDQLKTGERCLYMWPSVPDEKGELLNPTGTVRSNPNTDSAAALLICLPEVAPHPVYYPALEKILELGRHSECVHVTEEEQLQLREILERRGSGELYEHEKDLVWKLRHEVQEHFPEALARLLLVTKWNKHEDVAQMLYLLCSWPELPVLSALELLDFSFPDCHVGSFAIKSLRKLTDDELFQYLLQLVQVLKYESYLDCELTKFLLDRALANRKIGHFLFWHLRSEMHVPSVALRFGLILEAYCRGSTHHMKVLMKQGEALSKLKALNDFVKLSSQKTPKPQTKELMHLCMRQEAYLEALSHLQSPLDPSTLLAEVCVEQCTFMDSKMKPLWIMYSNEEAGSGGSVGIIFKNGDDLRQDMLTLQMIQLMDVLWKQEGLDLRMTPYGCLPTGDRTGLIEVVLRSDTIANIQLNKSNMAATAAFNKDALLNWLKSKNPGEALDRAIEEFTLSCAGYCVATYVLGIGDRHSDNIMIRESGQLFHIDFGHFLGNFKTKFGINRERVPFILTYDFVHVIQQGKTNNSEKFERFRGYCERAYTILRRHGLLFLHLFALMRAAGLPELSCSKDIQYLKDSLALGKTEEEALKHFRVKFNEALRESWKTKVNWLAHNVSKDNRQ
recombinant PI3 kinase δ, sequence (P27986 whole entry partner): as the sequence (P27986 whole entry partner, the tested form may be a part) above

Structure (SMILES) | IC50 (recombinant PI3 kinase α) [µM] | IC50 (recombinant PI3 kinase γ) [µM] | IC50 (recombinant PI3 kinase δ) [µM] | IC50 [1, 3] [µM] | Cell Viability MTT Assay in D-U937 cells at 4 hr [2] | Cell Viability MTT Assay in D-U937 cells at 24 hr [2] | IC50 ([1]; dU937, read-out: Cellular Activity IC50 values (H2O2 induced pAkt D-U937 Cells)) [µM]
C#Cc1cccc2nc(Cn3nc(-c4ccc(O)cc4)c4c(N)ncnc43)n(Cc3ccccc3)c(=O)c12 [Example 44, 2-((4-Amino-3-(4-hydroxyphenyl)-1H-pyrazolo[3,4-d]pyrimidin-1-yl)methyl)-3-benzyl-5-ethynylquinazolin-4(3H)-one] | > 1 | 0.05 to 1 | < 0.05 | < 0.01 | − (− <30%) | − (− <30%) | 
C#Cc1cccc2nc(Cn3nc(-c4ccc(O)cc4)c4c(N)ncnc43)n(Cc3ccccc3C(F)(F)F)c(=O)c12 [Example 45, 2-((4-Amino-3-(4-hydroxyphenyl)-1H-pyrazolo[3,4-d]pyrimidin-1-yl)methyl)-5-ethynyl-3-(2-trifluoromethylbenzyl)quinazolin-4(3H)-one] | 0.05 to 1 | 0.05 to 1 | < 0.05 | < 0.01 | − (− <30%) | − (− <30%) | 
C#Cc1cccc2nc(Cn3nc(-c4ccc(O)cc4)c4c(N)ncnc43)n(Cc3ccc(C#N)cc3)c(=O)c12 [Example 47, 4-((2-((4-Amino-3-(4-hydroxyphenyl)-1H-pyrazolo[3,4-d]pyrimidin-1-yl)methyl)-5-ethynyl-4-oxoquinazolin-3(4H)-yl)methyl)benzonitrile] | 0.05 to 1 | 0.05 to 1 | < 0.05 | < 0.01 | − (− <30%) | − (− <30%) | 
N#Cc1cccc(Cn2c(Cn3nc(-c4cccc(O)c4)c4c(N)ncnc43)nc3cccc(C#CCOCCOCCO)c3c2=O)c1 [Example 6, 3-((2-((4-Amino-3-(3-hydroxyphenyl)-1H-pyrazolo[3,4-d]pyrimidin-1-yl)methyl)-5-(3-(2-(2-hydroxyethoxy)ethoxy)prop-1-yn-1-yl)-4-oxoquinazolin-3(4H)-yl)methyl)benzonitrile] | 0.05 to 1 | 0.05 to 1 | < 0.05 | < 0.01 | − (− <30%) | − (− <30%) | 
Nc1ncnc2c1c(-c1cccc(O)c1)nn2Cc1nc2cccc(C#CCOCCN3CCOCC3)c2c(=O)n1Cc1ccccc1Cl [Example 8, 2-((4-Amino-3-(3-hydroxyphenyl)-1H-pyrazolo[3,4-d]pyrimidin-1-yl)methyl)-3-(2-chlorobenzyl)-5-(3-(2-morpholinoethoxy)prop-1-ynyl)quinazolin-4(3H)-one] | 0.05 to 1 | 0.05 to 1 | < 0.05 |  | − (− <30%) | − (− <30%) | < 0.01

Further lines, with some results ahead:

IC50 (recombinant PI3 kinase α) [µM] | IC50 (recombinant PI3 kinase γ) [µM] | IC50 (recombinant PI3 kinase δ) [µM] | IC50 [1, 3] [µM] | Structure (SMILES) | Cell Viability MTT Assay in D-U937 cells at 4 hr [2] | Cell Viability MTT Assay in D-U937 cells at 24 hr [2] | IC50 ([1]; dU937, read-out: Cellular Activity IC50 values (H2O2 induced pAkt D-U937 Cells)) [µM]
< 0.05 | < 0.05 | < 0.05 | < 0.01 | COCCNC(=O)CCCC#Cc1cccc2nc(Cn3nc(-c4cccc(O)c4)c4c(N)ncnc43)n(Cc3ccccc3Cl)c(=O)c12 [Example 54, 6-(2-((4-Amino-3-(3-hydroxyphenyl)-1H-pyrazolo[3,4-d]pyrimidin-1-yl)methyl)-3-(2-chlorobenzyl)-4-oxo-3,4-dihydroquinazolin-5-yl)-N-(2-methoxyethyl)hex-5-ynamide] | − (− <30%) | − (− <30%) | 
0.05 to 1 | < 0.05 | < 0.05 | < 0.01 | Nc1ncnc2c1c(-c1cccc(O)c1)nn2Cc1nc2cccc(C#CCCNC(=O)N3CCOCC3)c2c(=O)n1Cc1ccccc1Cl [Example 72, N-(4-(2-((4-Amino-3-(3-hydroxyphenyl)-1H-pyrazolo[3,4-d]pyrimidin-1-yl)methyl)-3-(2-chlorobenzyl)-4-oxo-3,4-dihydroquinazolin-5-yl)but-3-yn-1-yl)morpholine-4-carboxamide] | − (− <30%) | − (− <30%) | 
